# Values quoted from earlier work as cited in US20090042781A1, “Methods for Treating Diabetes” (Novo Nordisk A/S, priority 2004, published 2009).
# Tests used:
# [1] = injected into dogs
# [2] = administered by gastric gavage
Compound,blood glucose level [1],insulin release [1],serum gastrin level [2]
Exendin-4,lowering of the blood glucose level,stimulate insulin release,–
CC(C)(Oc1ccc(C2CC2(Cl)Cl)cc1)C(=O)O (stereo not drawn) [ciprofibrate],–,–,increase
